The nature of one data set: in vivo. Further details: species or system souris. Conditions: mouse, ip, 100 mg/kg. On the procedure:
Ainsi, l'administration à des souris hybrides CDF1 saines, en une injection unique par la voie intrapéritonéale, de doses croissantes des composés à tester (5 mg, 10 mg, 20 mg, 40 mg/kg) a permis de constater que, à ces doses, les produits étaient parfaitement tolérés puisque le taux de survivants était de 100 p. 100.
Dans les mêmes conditions, administrés à des souris BDF1 saines, les taux de survivants étaient de 100 p. 100 jusqu'à 100 mg/kg pour les dérivés 1, 3 et 9 et jusqu'à 200 mg/kg pour les dérivés 2 et 8.

The test system of another data set is mélanome B 16. The experiment in a line: B 16 melanoma test in vivo. More on the design: species or system souris hybrides BDF1; Jour médian de survie: unit not given here. Conditions: for Survivants: at day J 60. The text has this: L'activité antitumorale a été testée in vivo sur différentes tumeurs selon le protocole général suivant : Toutes les souris mâles ou femelles sont inoculées par voie intrapéritonéale au jour Jo avec une quantité déterminée de cellules tumorales viables, variable selon la tumeur.
Elles sont ensuite réparties en différents lots. Chaque lot correspondant aux animaux traités par le produit à tester à une dose déterminée est composé de lO souris. Dans ce cas, le produit à tester est dissous dans l'eau distillée et il est administré, pendant n jours (J1-Jn) variables selon le protocole choisi, par voie intrapéritonéale à raison de 0,1 ml par lO g de poids des souris traitées, les doses du produit administré étant précisées dans les tableaux ci-dessous.
Le lot "Contrôle négatif", correspondant aux animaux qui ne sont pas traités par un produit, comprend 2 √N animaux, N étant égal au nombre total de souris traitées par un produit.
Enfin, tous lés essais sont conduits parallèlement à l'étude d'un lot appelé "Contrôle positif" de 10 animaux qui est traité par une molécule active, variable selon le protocole choisi, dans les mêmes conditions que les lots traités par le produit à tester, afin de valider l'essai.
L'activité antitumorale est évaluée en considérant l'augmentation du temps de survie des animaux traités par rapport à celui des animaux du lot "Contrôle négatif" selon la formule : • Jour médian de survie des animaux traités à une T/C = dose donnée de produit x 100 • Jour médian de survie des animaux "Contrôle négatif"
Un composé est considéré comme étant actif lorsque la valeur du rapport T/C est égale ou supérieure à 125 % selon le protocole retenu. Il est toxique lorsque cette valeur est égale ou inférieure à 85 %. Le produit est également considéré comme toxique lorsque la variation pondérale, exprimée en grammes et calculée par la formule : Poids moyen du lot mesuré au jour 5 - poids moyen du même lot au jour 1, est égale ou inférieure à -4g . a) Test de la leucémie P 388 (GERAN et al., Cancer Chemother, 1972, 2, 07-57).
c) Test du mélanome B 16 (GERAN et al., Cancer Chemother, 1972, 2, 07-57).
Les essais sont effectués avec des souris hybrides BDF1 inoculées avec O,5 ml d'un homogénat de mélanome B 16 réalisé à partir de 1 g de tumeur dans 10 ml de sérum physiologique. Le composé à tester est administré pendant 9 jours (J1-J9). Le contrôle positif du test est le Cis- platine administré dans les mêmes conditions. Le nombre d'animaux survivants est évalué au jour J 60. Un composé est considéré comme étant actif lorsque le rapport T/C est supérieur ou égal à 125 %.

In data set [1] the test system is lignée tumorale leucémie L 1210. The experiment in a line: In vitro cytotoxicity on L 1210 leukemia cell culture. It is filed as cell-based. The following applies: Mus musculus, L1210; concentration inhibiting cell proliferation by 50 p. 100, after 48 h contact; read-out: ID 50 (the source's name). The method, then:
1) In vitro : (PAOLETTI et al., Chem. Biol. Interaction, 1979, 25, 45-58).
L'activité cytotoxique des composés de l'invention a été évaluée par des essais in vitro. Ces essais consistent à ajouter des concentrations croissantes du composé à tester à une culture cellulaire de la lignée tumorale leucémie L 1210 en phase exponentielle de croissance. Les cellules sont incubées à 37°C dans une étuve à C02 et comptées toutes les 24 heures. Le calcul de l'ID 50 (concentration du produit exprimée en micromole 1^-1 qui inhibe la prolifération cellulaire à 50 p. 100) est effectué après 48 heures de contact. Ainsi déterminées, les ID 50 des composés de l'invention sont rassemblées dans le tableau I ci-après : […]

In “in vivo”, `Cc1cnc(NCCCN(C)C)c2c1[nH]c1ccncc12` [Dérivé N° 3, [(diméthylamino-3 propyl-1)amino]-1 méthyl-4 5-H pyrido[3',4':4,5]pyrrolo[3,2-c]pyridine] gave a survival of 100%. In the data set with mélanome B 16 (5 mg/kg i.p. J1-J9), the “Jour médian de survie” value is on record as 29, the T/C % was 125% and the Survivants amounted to 0. In addition, in the data set with mélanome B 16 (20 mg/kg i.p. J1-J9), the “Jour médian de survie” value is listed as 29,3, the T/C % was determined as 126% and the Survivants was 0. Further, in the data set on mélanome B 16 (40 mg/kg i.p. J1-J9), the “Jour médian de survie” value is 9,8, the T/C % was 42% and the Survivants turned out to be 0.

On to `CCN(CC)CCCNc1ncc(C)c2c1c1cnccc1n2C` [Dérivé N° 4, [(diéthylamino-3 propyl-1)amino]-1 diméthyl-4,5 5-H pyrido[3',4':4,5]pyrrolo[3,2-c]pyridine], for which the “Jour médian de survie” value with mélanome B 16 (20 mg/kg i.p. J1-J9) is listed as 28; in the data set with mélanome B 16 (30 mg/kg i.p. J1-J9) it was 43,0; in the data set on mélanome B 16 (40 mg/kg i.p. J1-J9), 53,0; with mélanome B 16 (50 mg/kg i.p. J1-J9), 39,0; with mélanome B 16 (60 mg/kg i.p. J1-J9), 24,0. Besides, the T/C % came to 99% with mélanome B 16 (20 mg/kg i.p. J1-J9); 152% in the data set with mélanome B 16 (30 mg/kg i.p. J1-J9); 188% with mélanome B 16 (40 mg/kg i.p. J1-J9); 138% in the data set with mélanome B 16 (50 mg/kg i.p. J1-J9); 85% in the data set with mélanome B 16 (60 mg/kg i.p. J1-J9). Moreover, the Survivants in the data set with mélanome B 16 (20 mg/kg i.p. J1-J9) is 0; in the data set on mélanome B 16 (30 mg/kg i.p. J1-J9), 4; in the data set on mélanome B 16 (40 mg/kg i.p. J1-J9) it was 5; in the data set with mélanome B 16 (50 mg/kg i.p. J1-J9), 0; in the data set with mélanome B 16 (60 mg/kg i.p. J1-J9), 0. In data set [1], the IC50 stood at 130 nM.

(Values after patent EP0197829A1, “5H-pyrido[3',4':4,5]pyrrolo[3,2-c]pyridine derivatives, process for their preparation and their antitunour activity” (SANOFI, priority 1985, dated 1986).)
